The values that follow come from patent US20240261294A1, “METHOD FOR TREATING IDH INHIBITOR-RESISTANT SUBJECTS” (Eli Lilly and Company, priority 2021, published 2024).

Residue numbers refer to the chain shown, from its start. Where two headings read alike, the source gives them in different places.

A word on the IC50: it is the concentration at which inhibition is half-maximal.

Assay [1] deals with T1, IDH2 R140L_Q316E trans (Homo sapiens, UniProt P48735, Q316E/R140L).
T1 construct: expressed in transfected cells; host or cells: U-87 MG
T1 sequence (P48735 40-452 R140L): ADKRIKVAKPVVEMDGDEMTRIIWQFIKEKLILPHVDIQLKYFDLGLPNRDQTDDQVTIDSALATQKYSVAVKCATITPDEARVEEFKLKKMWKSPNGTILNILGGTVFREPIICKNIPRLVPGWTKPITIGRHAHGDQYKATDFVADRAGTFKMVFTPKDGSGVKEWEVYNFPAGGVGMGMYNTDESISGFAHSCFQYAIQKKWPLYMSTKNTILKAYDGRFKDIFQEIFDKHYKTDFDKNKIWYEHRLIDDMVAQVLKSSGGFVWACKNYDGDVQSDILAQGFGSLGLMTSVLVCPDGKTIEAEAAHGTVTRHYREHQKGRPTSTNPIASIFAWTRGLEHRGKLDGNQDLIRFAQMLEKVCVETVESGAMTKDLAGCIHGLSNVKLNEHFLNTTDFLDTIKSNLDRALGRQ
T1 sequence (P48735 40-452 Q316E): T1 sequence (P48735 40-452 R140L) with L101R, Q277E
The experiment in a line: Inhibition of 2-HG production in IDH2 mutant U-87 MG cells. Format: cell-based. The following applies: 16 hours incubation, 50K cells/well, 100 μl media/well, read-out: Relative IC50 (nM) Mean, inhibition of 2-HG production.

The target of assay [2] is T2, IDH2 R172W (Homo sapiens, UniProt P48735, R172W).
T2 construct: expressed in transfected cells; host or cells: U-87 MG
T2 sequence (P48735 40-452 R172W): T1 sequence (P48735 40-452 R140L) with L101R, R133W
The description is as above. Format: cell-based. The following applies: read-out: Relative IC50 (nM) Mean, inhibition of 2-HG production.

Regarding `C=CC(=O)N1CCN([C@@H](CC2CC2)c2ccc([C@H](C)Nc3ncc4c(n3)N(CC)C(=O)OC4)cc2)CC1` [Compound A, 7-[[(1S)-1-[4-[(1S)-2-cyclopropyl-1-(4-prop-2-enoylpiperazin-1-yl)ethyl]phenyl]ethyl]amino]-1-ethyl-4H-pyrimido[4,5-d][1,3]oxazin-2-one], the IC50 in assay [1] amounted to 262 nM; in assay [2] (16 hours incubation, 50K cells/well, 100 μl media/well), 336 nM; in assay [2] (72 hours incubation, 12.5K cells/well) it was 47 nM.
